Here are results for 36 compounds from ChEMBL document CHEMBL3046295, “Quantitative structure activity relationship (QSAR) studies of a series of 2,5-disubstituted-1,3,4-oxadiazole derivatives as biologically potential compounds” (2011).

One test concerns Escherichia coli. As to the kind of experiment: Antibacterial activity against Escherichia coli. Type of test: functional. The conditions noted are these: for MIC: Escherichia coli.
Another test has as its system Staphylococcus aureus. Kind of test: Antibacterial activity against Staphylococcus aureus. Format: functional. The following applies: for MIC: Staphylococcus aureus.

Values after ≈ are worked out from the molar mass of the structure shown.

On to `O=C(CSc1nnc(Cn2nnc3ccccc32)o1)Nc1ccc(Cl)cc1`, for which, in the test on Escherichia coli, the “-logMIC” value amounted to 6.6031 and the lowest concentration to inhibit growth (MIC) was 100 µg/mL (≈ 249 µM). In addition, in the test with Staphylococcus aureus, the “-logMIC” value amounted to 6.6737 and the lowest concentration to inhibit growth (MIC) was 85 µg/mL (≈ 212 µM).

In the case of `O=C(CSc1nnc(-c2cccnc2)o1)Nc1ccc(Cl)cc1`, in the test with Escherichia coli, the “-logMIC” value came out at 6.5403 and 100 µg/mL (≈ 288 µM) was the least that counted as inhibitory (MIC). In addition, in the test with Staphylococcus aureus, the “-logMIC” value came to 6.41 and the MIC (commonly the smallest concentration in the dilution series that meets the test's criterion for growth inhibition) stood at 135 µg/mL (≈ 389 µM).

Regarding `O=C(CSc1nnc(-c2cccnc2)o1)N1CCCCC1`, in the test with Escherichia coli, the “-logMIC” value stood at 6.229 and 180 µg/mL (≈ 591 µM) was the least that counted as inhibitory (MIC). The MIC against Staphylococcus aureus worked out at 155 µg/mL (≈ 509 µM).

As for `COc1ccc(NC(=O)CSc2nnc(-c3cccnc3)o2)cc1`, the “-logMIC” value with Escherichia coli was 6.3579; in the test on Staphylococcus aureus, 6.3879. The values for the MIC with Escherichia coli and in the test on Staphylococcus aureus were 150 µg/mL (≈ 438 µM) and 140 µg/mL (≈ 409 µM), respectively.

Take `O=C(CSc1nnc(-c2cccnc2)o1)Nc1ccc(Br)cc1`: the “-logMIC” value in the test with Escherichia coli amounted to 6.6379; with Staphylococcus aureus, 6.4953. The MIC stood at 90 µg/mL (≈ 230 µM) against Escherichia coli and 125 µg/mL (≈ 319 µM) against Staphylococcus aureus.

As for `COc1ccc(NC(=O)CSc2nnc(Cn3nnc4ccccc43)o2)cc1`, the “-logMIC” value is reported as 6.5185 in the test with Escherichia coli and 6.5008 in the test on Staphylococcus aureus. Besides, the MIC with Escherichia coli was determined as 120 µg/mL (≈ 303 µM); in the test on Staphylococcus aureus, 125 µg/mL (≈ 315 µM).

For the compound `O=C(CSc1nnc(Cn2nnc3ccccc32)o1)Nc1ccc(Br)cc1`, in the test on Escherichia coli, the “-logMIC” value was 6.7733 and the MIC was 75 µg/mL (≈ 168 µM). In the test with Staphylococcus aureus, the “-logMIC” value is given as 6.607 and the MIC was 110 µg/mL (≈ 247 µM).

For `O=C(CSc1nnc(Cn2nnc3ccccc32)o1)Nc1c(Cl)cccc1Cl`, in the test with Escherichia coli, the “-logMIC” value is 6.7354 and the MIC amounted to 80 µg/mL (≈ 184 µM). In the test with Staphylococcus aureus, the “-logMIC” value stood at 6.5778 and it took 115 µg/mL (≈ 264 µM) to inhibit growth (MIC).

As to `Cc1cccc(C)c1NC(=O)CSc1nnc(Cn2nnc3ccccc32)o1`, the “-logMIC” value with Escherichia coli was 6.5163; in the test on Staphylococcus aureus it was 6.4816. Besides, the MIC against Escherichia coli worked out at 120 µg/mL (≈ 304 µM); against Staphylococcus aureus, 130 µg/mL (≈ 330 µM).

As to `O=C(CSc1nnc(Cn2nnc3ccccc32)o1)Nc1ccc(Cl)c(Cl)c1`, in the test with Escherichia coli, the “-logMIC” value was determined as 6.6842 and 90 µg/mL (≈ 207 µM) was the least that counted as inhibitory (MIC). Moreover, in the test with Staphylococcus aureus, the “-logMIC” value came to 6.5416 and the MIC was 125 µg/mL (≈ 287 µM).

Consider `O=C(CCSc1nnc(Cn2nnc3ccccc32)o1)Nc1ccc(Cl)cc1`, for which, in the test with Escherichia coli, the “-logMIC” value is 6.5378 and it took 120 µg/mL (≈ 289 µM) to inhibit growth (MIC). Also, in the test with Staphylococcus aureus, the “-logMIC” value is 6.5378 and the MIC is 120 µg/mL (≈ 289 µM).

On to `Cc1ccc(NC(=O)CCSc2nnc(Cn3nnc4ccccc43)o2)cc1`, for which, in the test on Escherichia coli, the “-logMIC” value is given as 6.4986 and the MIC came out at 125 µg/mL (≈ 317 µM). Moreover, in the test with Staphylococcus aureus, the “-logMIC” value was 6.5541 and the MIC was determined as 110 µg/mL (≈ 279 µM).

With `O=C(CCSc1nnc(Cn2nnc3ccccc32)o1)Nc1ccc([N+](=O)[O-])cc1`, in the test on Escherichia coli, the “-logMIC” value came out at 6.587 and the MIC is 110 µg/mL (≈ 259 µM). In addition, in the test on Staphylococcus aureus, the “-logMIC” value was found to be 6.5677 and it took 115 µg/mL (≈ 270 µM) to inhibit growth (MIC).

Turning to `O=C(CCSc1nnc(Cn2nnc3ccccc32)o1)Nc1ccc(F)cc1`, the “-logMIC” value in the test on Escherichia coli worked out at 6.6968; with Staphylococcus aureus it was 6.5787. Also, the values for the MIC in the test with Escherichia coli and in the test on Staphylococcus aureus were 80 µg/mL (≈ 201 µM) and 105 µg/mL (≈ 264 µM), respectively.

In the case of `COc1ccc(NC(=O)CCSc2nnc(Cn3nnc4ccccc43)o2)cc1`, in the test with Escherichia coli, the “-logMIC” value was found to be 6.6128 and the MIC worked out at 100 µg/mL (≈ 244 µM). Also, in the test on Staphylococcus aureus, the “-logMIC” value was 6.6128 and the MIC was determined as 100 µg/mL (≈ 244 µM).

On to `O=C(CCSc1nnc(Cn2nnc3ccccc32)o1)Nc1ccc(Br)cc1`, for which, in the test on Escherichia coli, the “-logMIC” value is given as 6.6618 and the MIC was found to be 100 µg/mL (≈ 218 µM). In addition, in the test on Staphylococcus aureus, the “-logMIC” value was 6.7868 and the minimum inhibitory concentration (MIC) was determined as 75 µg/mL (≈ 163 µM).

`O=C(CCSc1nnc(Cn2nnc3ccccc32)o1)Nc1c(Cl)cccc1Cl`: in the test on Escherichia coli, the “-logMIC” value came out at 6.698 and inhibition of growth (MIC) required 90 µg/mL (≈ 200 µM). Besides, in the test with Staphylococcus aureus, the “-logMIC” value came out at 6.5731 and inhibition of growth (MIC) required 120 µg/mL (≈ 267 µM).

On to `Cc1cccc(C)c1NC(=O)CCSc1nnc(Cn2nnc3ccccc32)o1`, for which, in the test with Escherichia coli, the “-logMIC” value stood at 6.6107 and inhibition of growth (MIC) required 100 µg/mL (≈ 245 µM). In addition, in the test on Staphylococcus aureus, the “-logMIC” value came to 6.5693 and the MIC is 110 µg/mL (≈ 269 µM).

For `O=C(CCSc1nnc(Cn2nnc3ccccc32)o1)Nc1ccc(Cl)c(Cl)c1`, in the test with Escherichia coli, the “-logMIC” value is 6.5731 and the MIC was 120 µg/mL (≈ 267 µM). In addition, in the test with Staphylococcus aureus, the “-logMIC” value is reported as 6.6109 and the lowest concentration to inhibit growth (MIC) was 110 µg/mL (≈ 245 µM).

`O=C(CSc1nnc(-c2cccnc2)o1)Nc1ccc([N+](=O)[O-])cc1`: in the test on Escherichia coli, the “-logMIC” value turned out to be 6.3913 and the minimal inhibitory concentration (MIC) was found to be 145 µg/mL (≈ 406 µM). Further, in the test on Staphylococcus aureus, the “-logMIC” value was found to be 6.3766 and the MIC was determined as 150 µg/mL (≈ 420 µM).

`CCCNC(=O)CSc1nnc(-c2cccnc2)o1`: in the test on Escherichia coli, the “-logMIC” value worked out at 6.3471 and the MIC came to 125 µg/mL (≈ 449 µM). Further, in the test on Staphylococcus aureus, the “-logMIC” value is recorded as 6.444 and the MIC was 100 µg/mL (≈ 359 µM).

`O=C(CSc1nnc(-c2cccnc2)o1)N1CCOCC1`: the “-logMIC” value with Escherichia coli is on record as 6.4443; with Staphylococcus aureus, 6.4065. The MIC is 110 µg/mL (≈ 359 µM) in the test with Escherichia coli and 120 µg/mL (≈ 392 µM) in the test with Staphylococcus aureus.

Consider `CCCCNC(=O)CSc1nnc(-c2cccnc2)o1`, for which, in the test with Escherichia coli, the “-logMIC” value was found to be 6.4047 and the minimum inhibitory concentration (MIC) was 115 µg/mL (≈ 393 µM). In the test with Staphylococcus aureus, the “-logMIC” value worked out at 6.4877 and the MIC was found to be 95 µg/mL (≈ 325 µM).

Consider `O=C(CCSc1nnc(-c2cccnc2)o1)Nc1ccc(F)cc1`, for which, in the test with Escherichia coli, the “-logMIC” value is recorded as 6.3605 and the MIC turned out to be 150 µg/mL (≈ 436 µM). For the same compound, in the test on Staphylococcus aureus, the “-logMIC” value is given as 6.3061 and the MIC was found to be 170 µg/mL (≈ 494 µM).

For `COc1ccc(NC(=O)CCSc2nnc(-c3cccnc3)o2)cc1`, the “-logMIC” value in the test on Escherichia coli came to 6.5514; with Staphylococcus aureus it was 6.4053. For the same compound, the minimal inhibitory concentration (MIC) against Escherichia coli amounted to 100 µg/mL (≈ 281 µM); in the test on Staphylococcus aureus it was 140 µg/mL (≈ 393 µM).

Take `O=C(CCSc1nnc(-c2cccnc2)o1)Nc1ccc([N+](=O)[O-])cc1`: in the test with Escherichia coli, the “-logMIC” value turned out to be 6.4902 and the MIC is 120 µg/mL (≈ 323 µM). Also, in the test on Staphylococcus aureus, the “-logMIC” value amounted to 6.5694 and the minimal inhibitory concentration (MIC) is 100 µg/mL (≈ 269 µM).

On to `O=C(CCSc1nnc(-c2cccnc2)o1)Nc1ccc(Br)cc1`, for which the MIC against Escherichia coli amounted to 165 µg/mL (≈ 407 µM); against Staphylococcus aureus, 150 µg/mL (≈ 370 µM).

As for `O=C(CCSc1nnc(-c2cccnc2)o1)Nc1ccc(Cl)cc1`, in the test with Escherichia coli, the “-logMIC” value is given as 6.2349 and the minimum inhibitory concentration (MIC) is 80 µg/mL (≈ 222 µM). Further, in the test with Staphylococcus aureus, the “-logMIC” value was determined as 6.5575 and the MIC turned out to be 100 µg/mL (≈ 277 µM).

In the case of `O=C(CCSc1nnc(-c2cccnc2)o1)Nc1c(Cl)cccc1Cl`, in the test on Escherichia coli, the “-logMIC” value stood at 6.4638 and the MIC was 170 µg/mL (≈ 430 µM). Besides, in the test on Staphylococcus aureus, the “-logMIC” value stood at 6.4877 and the MIC worked out at 95 µg/mL (≈ 240 µM).

For the compound `CCCNC(=O)CCSc1nnc(-c2cccnc2)o1`, in the test on Escherichia coli, the “-logMIC” value turned out to be 6.4069 and 110 µg/mL (≈ 376 µM) was the least that counted as inhibitory (MIC). Besides, in the test with Staphylococcus aureus, the “-logMIC” value was found to be 6.4445 and the minimal inhibitory concentration (MIC) was 115 µg/mL (≈ 393 µM).

`CCCCNC(=O)CCSc1nnc(-c2cccnc2)o1` registered an MIC against Escherichia coli of 125 µg/mL (≈ 408 µM). Also, in the test with Staphylococcus aureus, the “-logMIC” value amounted to 6.4246 and inhibition of growth (MIC) required 120 µg/mL (≈ 392 µM).

For `O=C(CCSc1nnc(-c2cccnc2)o1)N1CCOCC1`, in the test on Escherichia coli, the “-logMIC” value stood at 6.3718 and the MIC was determined as 130 µg/mL (≈ 406 µM). For the same compound, in the test with Staphylococcus aureus, the “-logMIC” value is 6.3396 and inhibition of growth (MIC) required 140 µg/mL (≈ 437 µM).

`Cc1ccc(NC(=O)CSc2nnc(Cn3nnc4ccccc43)o2)cc1`: in the test on Escherichia coli, the “-logMIC” value stood at 6.5384 and it took 110 µg/mL (≈ 289 µM) to inhibit growth (MIC). In the test with Staphylococcus aureus, the “-logMIC” value stood at 6.5006 and the lowest concentration to inhibit growth (MIC) was 120 µg/mL (≈ 315 µM).

Consider `O=C(CSc1nnc(Cn2nnc3ccccc32)o1)Nc1ccc([N+](=O)[O-])cc1`, for which, in the test on Escherichia coli, the “-logMIC” value amounted to 6.5531 and the MIC was found to be 115 µg/mL (≈ 280 µM). In addition, in the test on Staphylococcus aureus, the “-logMIC” value was 6.4677 and inhibition of growth (MIC) required 140 µg/mL (≈ 340 µM).

With `O=C(CSc1nnc(Cn2nnc3ccccc32)o1)Nc1ccc(F)cc1`, in the test on Escherichia coli, the “-logMIC” value amounted to 6.6549 and the MIC turned out to be 85 µg/mL (≈ 221 µM). In the test with Staphylococcus aureus, the “-logMIC” value is 6.5843 and the MIC stood at 100 µg/mL (≈ 260 µM).

On to `O=C(CSc1nnc(-c2cccnc2)o1)Nc1ccc(F)cc1`, for which, in the test on Escherichia coli, the “-logMIC” value is 6.4216 and the MIC came out at 125 µg/mL (≈ 378 µM). In the test with Staphylococcus aureus, the “-logMIC” value was found to be 6.4046 and the MIC is 130 µg/mL (≈ 394 µM).
